For this data set the following is noted: 101.33 kPa, Liquid, Vibrating tube method.

± gives the expanded uncertainty stated by the source.

Turning to `CCCCCCCCC` [nonane], the mass density by setting is: (273.15 K) 732.83 ± 0.25 kg/m3; (278.15 K) 729.01 ± 0.25 kg/m3; (283.15 K) 725.16 ± 0.25 kg/m3; (288.15 K) 721.32 ± 0.25 kg/m3; (293.15 K) 717.45 ± 0.25 kg/m3; (298.15 K) 713.58 ± 0.25 kg/m3. The mass density (303.15 K) came out at 709.69 ± 0.25 kg/m3; the mass density (308.15 K) amounted to 705.78 ± 0.25 kg/m3; the mass density (313.15 K) worked out at 701.86 ± 0.25 kg/m3; the mass density (318.15 K) came out at 697.91 ± 0.25 kg/m3; the mass density (323.15 K) was 693.95 ± 0.25 kg/m3; the mass density (328.15 K) was found to be 689.97 ± 0.25 kg/m3. For the same molecule, the mass density is, setting by setting: (333.15 K) 685.97 ± 0.25 kg/m3; (338.15 K) 681.94 ± 0.25 kg/m3; (343.15 K) 677.88 ± 0.25 kg/m3; (348.15 K) 673.91 ± 0.25 kg/m3; (353.15 K) 669.71 ± 0.26 kg/m3; (358.15 K) 665.58 ± 0.26 kg/m3. The mass density (363.15 K) is on record as 661.14 ± 0.26 kg/m3.
As to `CCCCCCCC` [octane], the mass density (273.15 K) worked out at 718.25 ± 0.25 kg/m3; the mass density (278.15 K) is 714.31 ± 0.25 kg/m3; the mass density (283.15 K) turned out to be 710.34 ± 0.25 kg/m3; the mass density (288.15 K) is 706.35 ± 0.25 kg/m3; the mass density (293.15 K) turned out to be 702.35 ± 0.25 kg/m3; the mass density (298.15 K) was 698.34 ± 0.25 kg/m3. The mass density runs as follows: (303.15 K) 694.3 ± 0.25 kg/m3; (308.15 K) 690.24 ± 0.25 kg/m3; (313.15 K) 686.17 ± 0.25 kg/m3; (318.15 K) 682.06 ± 0.25 kg/m3; (323.15 K) 677.94 ± 0.25 kg/m3; (328.15 K) 673.79 ± 0.25 kg/m3. For the same molecule, the mass density is on record as 669.61 ± 0.26 kg/m3 (333.15 K); 665.4 ± 0.26 kg/m3 (338.15 K); 661.16 ± 0.26 kg/m3 (343.15 K); 656.88 ± 0.26 kg/m3 (348.15 K); 652.57 ± 0.26 kg/m3 (353.15 K); 648.23 ± 0.26 kg/m3 (358.15 K). For the same molecule, the mass density (363.15 K) worked out at 643.83 ± 0.26 kg/m3.

As a reminder, the mass density is the mass of a sample divided by its volume.
